The source of these data is patent US10118930B2, “Piperidinylpyrazolopyrimidinones and their use” (BAYER PHARMA AKTIENGESELLSCHAFT, priority 2015, dated 2018).

Counter-ions that a name gives are not always drawn.

The test deals with clot lysis (fibrinolysis) in diluted human citrated plasma, tPA-induced. The test can be described thus: Plasma-based clot lysis assay (5%). As to conditions: human citrated platelet-poor plasma 5%, fibrinogen 3 μM, CaCl2 10 mM, tPA 0.2 nM, 37° C., OD at 405 nm. It is filed as biochemical. Put shortly:
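Clot formation and breakdown triggered by CaCl2 (10 mM final) plus tPA (0.2 nM final) at 37° C, in 5% diluted human plasma supplemented with 3 μM fibrinogen (HEPES/NaCl/Brij buffer, pH 7). IC50 obtained from time courses relative to a blank control.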
With `O=c1cc(C2CCNCC2)n2ncc(-c3nnc(-c4ccc(Cl)cc4)o3)c2[nH]1` [Example 181, 3-[5-(4-chlorophenyl)-1,3,4-oxadiazol-2-yl]-7-(piperidin-4-yl)pyrazolo[1,5-a]pyrimidin-5(4H)-one hydrochloride], the IC50 – broadly, the point on the concentration scale where inhibition reaches its midpoint – was found to be 28 nM.
The value for `CC(C)CNC(=O)c1cnn2c(C3CCNCC3)cc(=O)[nH]c12` [Example 21, N-Isobutyl-5-oxo-7-(piperidin-4-yl)-4,5-dihydropyrazolo[1,5-a]pyrimidine-3-carboxamide hydrochloride] was 14 nM; that for `O=C(OCCC(F)(F)F)c1cnn2c(C3CCNCC3)cc(=O)[nH]c12` [Example 355, 3,3,3-trifluoropropyl 5-oxo-7-(piperidin-4-yl)-4,5-dihydropyrazolo[1,5-a]pyrimidine-3-carboxylate hydrochloride] was 27 nM; that for `Cc1nn2c(C3CCNCC3)cc(=O)[nH]c2c1C(=O)OCCCF` [Example 464, 3-fluoropropyl 2-methyl-5-oxo-7-(piperidin-4-yl)-4,5-dihydropyrazolo[1,5-a]pyrimidine-3-carboxylate hydrochloride] was 130 nM.
The value for `O=c1cc(C2CCNCC2)n2ncc(-c3nc(-c4ccc(OC(F)(F)F)cc4)no3)c2[nH]1` [Example 115, 7-(Piperidin-4-yl)-3-{3-[4-(trifluoromethoxy)phenyl]-1,2,4-oxadiazol-5-yl}pyrazolo[1,5-a]pyrimidin-5(4H)-one hydrochloride] was 27 nM.
The value for `CCc1noc(-c2cnn3c(C4CCNCC4)cc(=O)[nH]c23)n1` [Example 107, 3-(3-ethyl-1,2,4-oxadiazol-5-yl)-7-(piperidin-4-yl)pyrazolo[1,5-a]pyrimidin-5(4H)-one] was 49 nM.
`O=c1cc(C2CCNCC2)n2nc(C3CC3)cc2[nH]1` [Example 26, 2-Cyclopropyl-7-(piperidin-4-yl)pyrazolo[1,5-a]pyrimidin-5(4H)-one hydrochloride] displayed an IC50 of 310 nM.
With `CCCN(CC1CC1)C(=O)c1c(C)nn2c(C3CCNCC3)cc(=O)[nH]c12` [Example 406, N-(cyclopropyl-methyl)-2-methyl-5-oxo-7-(piperidin-4-yl)-N-propyl-4,5-dihydropyrazolo [1,5-a]pyrimidine-3-carboxamide hydrochloride], the IC50 was determined as 37 nM.
The value for `O=c1cc(C2CCNCC2)n2nc(C(F)(F)F)cc2[nH]1` [Example 24, 7-(Piperidin-4-yl)-2-(trifluoromethyl)pyrazolo[1,5-a]pyrimidin-5(4H)-one hydrochloride] was 59 nM; that for `O=C(O)c1cnn2c(C3CCNCC3)cc(=O)[nH]c12` [Example 17, 5-Oxo-7-(piperidin-4-yl)-4,5-dihydropyrazolo[1,5-a]pyrimidine-3-carboxylic acid hydrochloride] was 46 nM.
The value for `Cc1nn2c(C3CCNCC3)cc(=O)[nH]c2c1C(=O)N1CCSCC1` [Example 397, 2-methyl-7-(piperidin-4-yl)-3-(thiomorpholin-4-ylcarbonyl)pyrazolo [1,5-a]pyrimidin-5(4H)-one hydrochloride] was 36 nM.
The value for `O=c1cc(C2CCNCC2)n2ncc(-c3ccc(F)c(Cl)c3)c2[nH]1` [Example 72, 3-(3-Chloro-4-fluorophenyl)-7-(piperidin-4-yl)pyrazolo[1,5-a]pyrimidin-5(4H)-one hydrochloride] was 64 nM; that for `Cc1nc(-c2ccccc2)sc1-c1cnn2c(C3CCNCC3)cc(=O)[nH]c12` [Example 187, 3-(4-methyl-2-phenyl-1,3-thiazol-5-yl)-7-(piperidin-4-yl)pyrazolo[1,5-a]pyrimidin-5(4H)-one hydrochloride] was 35 nM; that for `CC1(C)CN(Cc2cnn3c(C4CCNCC4)cc(=O)[nH]c23)CCO1` [Example 330, 3-[(2,2-dimethylmorpholin-4-yl)methyl]-7-(piperidin-4-yl)pyrazolo[1,5-a]pyrimidin-5(4H)-one hydrochloride] was 110 nM.
In turn, `CC(C)(C)c1ccc(-c2nnc(-c3cnn4c(C5CCNCC5)cc(=O)[nH]c34)o2)cc1` [Example 179, 3-[5-(4-tert-butylphenyl)-1,3,4-oxadiazol-2-yl]-7-(piperidin-4-yl)pyrazolo[1,5-a]pyrimidin-5 (4H)-one hydrochloride] registered an IC50 of 37 nM.
The value for `CC(C)(C)CC1CC(c2cc(=O)[nH]c3c(-c4nc(C(C)(C)C)no4)cnn23)CCN1` (stereo not drawn) [Example 303, 3-(3-tert-butyl-1,2,4-oxadiazol-5-yl)-7-[2-(2,2-dimethylpropyl)piperidin-4-yl]pyrazolo[1,5-a]pyrimidin-5(4H)-one hydrochloride] was 38 nM; that for `O=c1cc(C2CCNCC2)n2ncc(-c3nc(C(F)(F)F)cs3)c2[nH]1` [Example 351, 7-(piperidin-4-yl)-3-[4-(trifluoromethyl)-1,3-thiazol-2-yl]pyrazolo[1,5-a]pyrimidin-5 (4H)-one hydrochloride] was 26 nM; that for `NC(=O)CCNC(=O)c1cnn2c(C3CCNCC3)cc(=O)[nH]c12` [Example 89, N-(3-amino-3-oxopropyl)-5-oxo-7-(piperidin-4-yl)-4,5-dihydropyrazolo[1,5-a]pyrimidine-3-carboxamide hydrochloride] was 140 nM.
The value for `O=c1cc(C2CCNCC2)n2ncc(-c3nc(-c4cc(C(F)(F)F)ccn4)no3)c2[nH]1` [Example 147, 7-(piperidin-4-yl)-3-{3-[4-(trifluoromethyl)pyridin-2-yl]-1,2,4-oxadiazol-5-yl}pyrazolo[1,5-a]pyrimidin-5(4H)-one hydrochloride] was 38 nM.
The value for `Cc1nn2c(C3CCNCC3)cc(=O)[nH]c2c1C(=O)N1CCc2ccccc21` [Example 412, 3-(2,3-dihydro-1H-indol-1-ylcarbonyl)-2-methyl-7-(piperidin-4-yl) pyrazolo[1,5-a] pyrimidin-5(4H)-one hydrochloride] was 33 nM; that for `O=c1cc(C2CCNCC2)n2ncc(-c3nc(-c4cccc(C(F)(F)F)n4)no3)c2[nH]1` [Example 146, 7-(Piperidin-4-yl)-3-{3-[6-(trifluoromethyl)pyridin-2-yl]-1,2,4-oxadiazol-5-yl}pyrazolo[1,5-a]pyrimidin-5(4H)-one hydrochloride] was 35 nM; that for `COc1ccccc1-c1nc(-c2cnn3c(C4CCNCC4)cc(=O)[nH]c23)no1` [Example 219, 3-[5-(2-methoxyphenyl)-1,2,4-oxadiazol-3-yl]-7-(piperidin-4-yl)pyrazolo[1,5-a]pyrimidin-5(4H)-one hydrochloride] was 35 nM.
`CN(Cc1cccnc1)C(=O)c1cnn2c(C3CCNCC3)cc(=O)[nH]c12` [Example 318, N-methyl-5-oxo-7-(piperidin-4-yl)-N-(pyridin-3-ylmethyl)-4,5-dihydropyrazolo[1,5-a]pyrimidine-3-carboxamide hydrochloride] had an IC50 of 45 nM.
The value for `COc1ccccc1-c1noc(-c2cnn3c(C4CCNCC4)cc(=O)[nH]c23)n1` [Example 160, 3-[3-(2-methoxyphenyl)-1,2,4-oxadiazol-5-yl]-7-(piperidin-4-yl)pyrazolo[1,5-a]pyrimidin-5(4H)-one hydrochloride] was 73 nM.
The value for `CCCCc1nnc(-c2cnn3c(C4CCNCC4)cc(=O)[nH]c23)o1` [Example 295, 3-(5-butyl-1,3,4-oxadiazol-2-yl)-7-(piperidin-4-yl)pyrazolo[1,5-a]pyrimidin-5(4H)-one hydrochloride] was 35 nM; that for `COc1ccc(Cc2nc(-c3cnn4c(C5CCNCC5)cc(=O)[nH]c34)no2)cn1` [Example 251, 3-{5-[(6-methoxypyridin-3-yl)methyl]-1,2,4-oxadiazol-3-yl}-7-(piperidin-4-yl)pyrazolo[1,5-a]pyrimidin-5(4H)-one hydrochloride] was 31 nM.
Consider `CN(Cc1ccccn1)C(=O)c1cnn2c(C3CCNCC3)cc(=O)[nH]c12` [Example 361, N-methyl-5-oxo-7-(piperidin-4-yl)-N-(pyridin-2-ylmethyl)-4,5-dihydropyrazolo[1,5-a]pyrimidine-3-carboxamide hydrochloride], for which half-maximal inhibition (IC50) required 32 nM.
The value for `Cc1nn2c(C3CCNCC3)cc(=O)[nH]c2c1-c1nc(CCOC(C)(C)C)no1` [Example 302, 3-[3-(2-tert-butoxyethyl)-1,2,4-oxadiazol-5-yl]-2-methyl-7-(piperidin-4-yl)pyrazolo[1,5-a]pyrimidin-5(4H)-one hydrochloride] was 6 nM; that for `Cn1cncc1-c1nnc(-c2cnn3c(C4CCNCC4)cc(=O)[nH]c23)o1` [Example 168, 3-[5-(1-methyl-1H-imidazol-5-yl)-1,3,4-oxadiazol-2-yl]-7-(piperidin-4-yl)pyrazolo[1,5-a]pyrimidin-5(4H)-one hydrochloride] was 33 nM.
The value for `COc1ccc(C(C)(C)c2nc(-c3cnn4c(C5CCNCC5)cc(=O)[nH]c34)no2)cc1` [Example 242, 3-{5-[2-(4-methoxyphenyl)propan-2-yl]-1,2,4-oxadiazol-3-yl}-7-(piperidin-4-yl)pyrazolo[1,5-a]pyrimidin-5(4H)-one hydrochloride] was 20 nM; that for `CCCN(CC)C(=O)c1cnn2c(C3CCNCC3)cc(=O)[nH]c12` [Example 96, N-ethyl-5-oxo-7-(piperidin-4-yl)-N-propyl-4,5-dihydropyrazolo[1,5-a]pyrimidine-3-carboxamide hydrochloride] was 33 nM.
The value for `O=c1cc(C2CCNCC2)n2ncc(-c3nnc(Cc4ccc(Cl)cc4)o3)c2[nH]1` [Example 284, 3-[5-(4-chlorobenzyl)-1,3,4-oxadiazol-2-yl]-7-(piperidin-4-yl)pyrazolo[1,5-a]pyrimidin-5(4H)-one hydrochloride] was 20 nM.
Molecule `Cc1nn2c(C3CCNCC3)cc(=O)[nH]c2c1-c1nc(Cc2ccccc2Cl)no1` [Example 439, 3-[3-(2-chlorobenzyl)-1,2,4-oxadiazol-5-yl]-2-methyl-7-(piperidin-4-yl)pyrazolo[1,5-a]pyrimidin-5(4H)-one hydrochloride] registered an IC50 of 26 nM.
